Test results taken from ChEMBL document CHEMBL3763146 (J Med Chem, 2016).

Columns and labels:
Rhesus monkey = assay: Unbound clearance in rhesus monkey at 0.5 mg/kg, iv or 2 mg/kg, po; format: ADME, organism-based, Macaca mulatta; details: in vivo
[1] = biological target: Beta-3 adrenergic receptor (Macaca mulatta) (UniProt Q28524); assay: Agonist activity at rhesus monkey beta3 adrenergic receptor expressed in CHO cells assessed as accumulation of cAMP after 30 mins by TR-FRET assay relative to (R)-(-)-isoproterenol; format: functional, cell-based
Beta-3 adrenergic receptor (Macaca mulatta), sequence (Q28524 whole entry): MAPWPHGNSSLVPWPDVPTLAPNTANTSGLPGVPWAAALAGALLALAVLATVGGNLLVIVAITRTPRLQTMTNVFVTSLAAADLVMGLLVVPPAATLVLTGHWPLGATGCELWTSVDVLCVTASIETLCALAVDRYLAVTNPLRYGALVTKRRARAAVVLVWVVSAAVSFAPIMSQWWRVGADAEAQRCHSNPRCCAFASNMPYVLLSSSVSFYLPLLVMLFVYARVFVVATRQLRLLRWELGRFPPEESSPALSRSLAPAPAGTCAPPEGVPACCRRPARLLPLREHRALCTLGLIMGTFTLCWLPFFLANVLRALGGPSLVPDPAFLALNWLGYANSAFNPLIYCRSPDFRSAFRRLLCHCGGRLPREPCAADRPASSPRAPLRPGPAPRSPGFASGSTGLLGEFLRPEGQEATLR

[2] = biological target: Beta-3 adrenergic receptor (Canis lupus familiaris, UniProt O02662); assay: Agonist activity at dog beta3 adrenergic receptor expressed in CHO cells assessed as accumulation of cAMP after 30 mins by TR-FRET assay; format: functional, cell-based
[3] = Half life in cynomolgus monkey at 0.5 mg/kg, iv or 2 mg/kg, po; format: ADME, organism-based, Macaca fascicularis; details: in vivo
Cynomolgus monkey = assay: Unbound clearance in cynomolgus monkey at 0.5 mg/kg, iv or 2 mg/kg, po; format: ADME, organism-based, Macaca fascicularis; details: in vivo
Hepatocyte = assay: Increase in CYP3A4 mRNA expression in human hepatocytes up to 10 uM; format: ADME, cell-based
[4] = Stability in rhesus monkey plasma assessed as parent compound remaining at 24 hrs by LC-MS analysis; format: ADME, cell-free, Macaca mulatta; details: read-out: Stability
[5] = Distribution coefficient, logD of the compound at pH 7.4; format: physicochemical; details: octanol/water
[6] = Plasma clearance in rat at 1 mg/kg, iv or 2 mg/kg, po; format: ADME, organism-based
[7] = Half life in rhesus monkey at 0.5 mg/kg, iv or 2 mg/kg, po; format: ADME, organism-based, Macaca mulatta; details: in vivo
[8] = Fraction unbound in rat at 1 mg/kg, iv or 2 mg/kg, po; format: ADME, organism-based; details: in vivo
[9] = Drug recovery in bile duct cannulated rat feces at 5 mg/kg, iv measured over 48 hrs; format: ADME, organism-based; details: faeces, read-out: Drug recovery
[10] = biological target: T1, Beta-3 adrenergic receptor (Rattus norvegicus, UniProt P26255); assay: Agonist activity at rat beta3 adrenergic receptor expressed in CHO cells assessed as accumulation of cAMP after 30 mins by TR-FRET assay in presence of 40% serum; format: functional, cell-based
T1 sequence (P26255 whole entry): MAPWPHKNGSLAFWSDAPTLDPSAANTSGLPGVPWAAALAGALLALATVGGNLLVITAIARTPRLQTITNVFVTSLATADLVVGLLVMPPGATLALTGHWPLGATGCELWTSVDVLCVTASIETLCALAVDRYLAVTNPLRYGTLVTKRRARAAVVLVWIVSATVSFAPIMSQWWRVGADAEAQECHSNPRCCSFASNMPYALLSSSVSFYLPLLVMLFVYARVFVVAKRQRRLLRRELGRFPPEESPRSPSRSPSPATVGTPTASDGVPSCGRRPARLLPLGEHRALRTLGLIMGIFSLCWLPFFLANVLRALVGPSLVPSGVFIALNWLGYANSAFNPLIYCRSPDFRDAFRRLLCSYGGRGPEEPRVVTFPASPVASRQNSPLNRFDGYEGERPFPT

[11] = biological target: Voltage-gated inwardly rectifying potassium channel KCNH2 (Homo sapiens, UniProt Q12809); assay: Binding affinity to human ERG channel
Canis familiaris = assay: Unbound clearance in dog at 0.5 mg/kg, iv or 2 mg/kg, po; format: ADME, organism-based, Canis lupus familiaris; details: in vivo
[12] = Oral bioavailability in rat at 2 mg/kg; format: ADME, organism-based; details: in vivo
Rattus norvegicus [13] = species on record: Rattus norvegicus; assay: Toxicity in Sprague-Dawley rat assessed as antemortem parameters measured up to 6 months; format: organism-based; details: in vivo
Cytochrome P450 3A4 [14] = biological target: T2, Cytochrome P450 3A4 (Homo sapiens, UniProt P08684); assay: Inhibition of CYP3A4 in human liver microsomes assessed as testosterone 6beta-hydroxylation; format: ADME
T2 sequence (P08684 whole entry, the tested form may be a part): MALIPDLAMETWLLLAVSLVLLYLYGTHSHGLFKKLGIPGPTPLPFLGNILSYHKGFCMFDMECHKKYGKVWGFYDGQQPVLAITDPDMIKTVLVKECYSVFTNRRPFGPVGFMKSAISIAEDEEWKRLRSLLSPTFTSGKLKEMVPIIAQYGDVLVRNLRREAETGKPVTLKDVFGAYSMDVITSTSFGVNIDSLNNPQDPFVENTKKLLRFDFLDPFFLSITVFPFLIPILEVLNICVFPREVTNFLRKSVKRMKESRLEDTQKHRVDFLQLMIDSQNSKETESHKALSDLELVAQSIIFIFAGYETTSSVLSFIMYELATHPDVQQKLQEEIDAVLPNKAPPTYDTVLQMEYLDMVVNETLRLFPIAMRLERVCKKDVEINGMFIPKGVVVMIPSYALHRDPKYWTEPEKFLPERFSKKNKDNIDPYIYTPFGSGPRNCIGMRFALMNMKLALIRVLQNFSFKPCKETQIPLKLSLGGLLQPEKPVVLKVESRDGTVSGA

Rattus norvegicus [15] = assay: Increase in circulating glycerol level in iv infused Sprague-Dawley rat after 45 mins by liquid chromatography-tandem mass spectrometric analysis; format: functional
[16] = biological target: Nuclear receptor subfamily 1 group I member 2 (Homo sapiens, UniProt O75469); assay: Activation of human PX receptor
Nuclear receptor subfamily 1 group I member 2, sequence (O75469 whole entry): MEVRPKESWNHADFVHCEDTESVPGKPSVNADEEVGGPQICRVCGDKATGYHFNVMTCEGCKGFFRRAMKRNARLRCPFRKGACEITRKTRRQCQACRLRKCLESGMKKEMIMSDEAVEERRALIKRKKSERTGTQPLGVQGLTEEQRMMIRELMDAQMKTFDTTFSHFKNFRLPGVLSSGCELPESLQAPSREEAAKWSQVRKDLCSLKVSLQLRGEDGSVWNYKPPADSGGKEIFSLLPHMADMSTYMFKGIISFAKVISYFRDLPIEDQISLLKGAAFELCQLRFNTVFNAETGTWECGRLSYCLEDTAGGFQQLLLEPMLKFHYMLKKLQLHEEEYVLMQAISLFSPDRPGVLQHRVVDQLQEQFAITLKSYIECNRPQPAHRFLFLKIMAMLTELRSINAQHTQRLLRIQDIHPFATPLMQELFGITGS

Rattus norvegicus [17] = assay: Dose normalized total AUC in rat at 2 mg/kg, po; format: ADME, organism-based; details: in vivo
[18] = Solubility of the compound in fasted-simulated intestinal fluid; format: ADME; details: fasted-state simulated intestinal fluid
[19] = biological target: Beta-3 adrenergic receptor (Homo sapiens, UniProt P13945); assay: Agonist activity at human adrenergic beta3 receptor expressed in CHO cells assessed as accumulation of cAMP after 30 mins by TR-FRET assay in presence of 40% serum; format: functional, cell-based
Beta-3 adrenergic receptor (Homo sapiens, UniProt P13945), sequence (P13945 whole entry): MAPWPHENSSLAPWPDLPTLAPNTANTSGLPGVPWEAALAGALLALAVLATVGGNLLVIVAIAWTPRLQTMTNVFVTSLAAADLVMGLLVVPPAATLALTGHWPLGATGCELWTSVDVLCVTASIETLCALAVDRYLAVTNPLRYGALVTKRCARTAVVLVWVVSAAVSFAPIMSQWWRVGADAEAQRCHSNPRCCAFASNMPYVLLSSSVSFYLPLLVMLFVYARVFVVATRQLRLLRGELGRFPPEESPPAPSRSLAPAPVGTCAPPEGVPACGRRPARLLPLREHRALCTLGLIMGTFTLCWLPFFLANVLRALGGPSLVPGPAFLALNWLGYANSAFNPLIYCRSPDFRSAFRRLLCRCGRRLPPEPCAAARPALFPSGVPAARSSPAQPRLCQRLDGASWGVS

[20] = biological target: Beta-3 adrenergic receptor (Macaca mulatta, UniProt Q28524); assay: Agonist activity at rhesus monkey beta3 adrenergic receptor expressed in CHO cells assessed as accumulation of cAMP after 30 mins by TR-FRET assay; format: functional, cell-based
Beta-3 adrenergic receptor (Macaca mulatta, UniProt Q28524), sequence (Q28524 whole entry): as the sequence (Q28524 whole entry) above

MDR1 (human) = assay: Apparent permeability of the compound in pig LLC-PK1 cells expressing human MDR1 at 5 uM measured at 3 hrs by LC/MS/MS analysis; format: ADME, cell-based, Sus scrofa
Rattus norvegicus [21] = species on record: Rattus norvegicus; assay: Toxicity in Sprague-Dawley rat assessed as postmortem parameters measured up to 6 months; format: organism-based; details: in vivo
Cytochrome P450 2C9 = Cytochrome P450 2C9 (Homo sapiens, UniProt P11712); assay: Inhibition of CYP2C9 in human liver microsomes assessed as diclofenac alpha'-hydroxylation; format: ADME
[22] = biological target: Voltage-dependent L-type calcium channel subunit alpha-1C (Homo sapiens, UniProt Q13936); assay: Displacement of [3H]-diltiazem from human Cav1.2 channel
Voltage-dependent L-type calcium channel subunit alpha-1C, sequence (Q13936 whole entry): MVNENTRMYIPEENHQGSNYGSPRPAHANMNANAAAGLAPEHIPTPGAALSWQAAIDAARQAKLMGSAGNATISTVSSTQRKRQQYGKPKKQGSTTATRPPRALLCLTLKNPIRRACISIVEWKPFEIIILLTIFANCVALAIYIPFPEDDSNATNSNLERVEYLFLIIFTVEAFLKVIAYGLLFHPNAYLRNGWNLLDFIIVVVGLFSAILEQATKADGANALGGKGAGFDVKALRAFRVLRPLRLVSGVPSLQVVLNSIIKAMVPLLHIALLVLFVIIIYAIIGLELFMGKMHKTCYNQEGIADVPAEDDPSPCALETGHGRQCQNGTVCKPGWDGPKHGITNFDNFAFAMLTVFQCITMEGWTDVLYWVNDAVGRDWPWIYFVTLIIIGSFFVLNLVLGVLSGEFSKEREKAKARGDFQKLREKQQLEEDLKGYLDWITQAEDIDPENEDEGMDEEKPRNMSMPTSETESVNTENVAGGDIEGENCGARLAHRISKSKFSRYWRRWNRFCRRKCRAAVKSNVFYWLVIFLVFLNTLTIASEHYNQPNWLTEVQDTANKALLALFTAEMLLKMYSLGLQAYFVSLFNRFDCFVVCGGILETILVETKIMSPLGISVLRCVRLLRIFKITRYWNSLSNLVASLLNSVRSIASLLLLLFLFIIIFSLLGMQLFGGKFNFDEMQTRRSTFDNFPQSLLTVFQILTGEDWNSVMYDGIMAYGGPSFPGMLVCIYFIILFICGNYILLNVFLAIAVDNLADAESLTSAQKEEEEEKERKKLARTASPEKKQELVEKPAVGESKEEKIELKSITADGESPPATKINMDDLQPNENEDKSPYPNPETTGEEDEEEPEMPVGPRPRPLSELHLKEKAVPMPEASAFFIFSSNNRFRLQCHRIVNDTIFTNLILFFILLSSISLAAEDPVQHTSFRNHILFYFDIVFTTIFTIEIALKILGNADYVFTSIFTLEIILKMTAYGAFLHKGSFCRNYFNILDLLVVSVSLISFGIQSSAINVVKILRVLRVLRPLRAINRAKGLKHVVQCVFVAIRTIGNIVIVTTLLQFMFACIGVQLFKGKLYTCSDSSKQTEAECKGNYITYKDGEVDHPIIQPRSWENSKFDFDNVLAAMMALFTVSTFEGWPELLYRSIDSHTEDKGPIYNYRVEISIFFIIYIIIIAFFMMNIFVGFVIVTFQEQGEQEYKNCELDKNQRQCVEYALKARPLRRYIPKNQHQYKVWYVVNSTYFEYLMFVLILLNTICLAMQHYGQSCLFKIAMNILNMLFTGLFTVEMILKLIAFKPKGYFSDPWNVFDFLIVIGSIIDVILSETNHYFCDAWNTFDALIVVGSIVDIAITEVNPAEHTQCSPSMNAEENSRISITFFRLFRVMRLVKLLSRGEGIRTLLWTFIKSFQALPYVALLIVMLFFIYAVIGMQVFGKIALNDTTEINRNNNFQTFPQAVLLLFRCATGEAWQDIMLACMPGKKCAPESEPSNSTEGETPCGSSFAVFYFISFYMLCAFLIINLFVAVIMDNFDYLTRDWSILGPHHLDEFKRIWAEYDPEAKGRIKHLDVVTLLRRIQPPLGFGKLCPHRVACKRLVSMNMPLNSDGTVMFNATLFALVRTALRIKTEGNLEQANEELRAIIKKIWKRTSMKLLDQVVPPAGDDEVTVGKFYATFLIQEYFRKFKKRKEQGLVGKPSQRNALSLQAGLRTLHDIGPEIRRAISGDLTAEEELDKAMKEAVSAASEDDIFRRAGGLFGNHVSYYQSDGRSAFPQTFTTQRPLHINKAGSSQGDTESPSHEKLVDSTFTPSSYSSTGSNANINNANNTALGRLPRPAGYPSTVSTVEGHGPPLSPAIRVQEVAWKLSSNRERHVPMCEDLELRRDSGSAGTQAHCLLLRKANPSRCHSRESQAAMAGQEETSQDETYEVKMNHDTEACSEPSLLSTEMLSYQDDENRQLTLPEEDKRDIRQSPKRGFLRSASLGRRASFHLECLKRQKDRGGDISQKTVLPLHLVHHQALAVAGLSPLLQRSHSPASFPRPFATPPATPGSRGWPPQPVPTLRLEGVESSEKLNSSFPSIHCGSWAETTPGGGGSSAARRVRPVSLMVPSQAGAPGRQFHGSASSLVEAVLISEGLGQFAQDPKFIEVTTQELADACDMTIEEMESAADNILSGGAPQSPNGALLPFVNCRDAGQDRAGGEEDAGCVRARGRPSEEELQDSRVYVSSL

[23] = Intrinsic clearance in rat liver microsomes; format: ADME; details: read-out: CLH
Cytochrome P450 3A4 [24] = biological target: T2, Cytochrome P450 3A4; assay: Induction of CYP3A4 activity in human hepatocytes up to 10 uM; format: ADME, cell-based, Hepatocyte
[25] = Drug recovery in bile duct cannulated rat feces at 10 mg/kg, po measured over 48 hrs; format: ADME, organism-based; details: faeces, read-out: Drug recovery
[26] = Stability in dog plasma assessed as parent compound remaining at 24 hrs by LC-MS analysis; format: ADME, cell-free, Canis lupus familiaris; details: read-out: Stability
[27] = biological target: Beta-3 adrenergic receptor (Rattus norvegicus) (UniProt P26255); assay: Agonist activity at rat beta3 adrenergic receptor expressed in CHO cells assessed as accumulation of cAMP after 30 mins by TR-FRET assay in presence of 40% serum relative to (R)-(-)-isoproterenol; format: functional, cell-based
Beta-3 adrenergic receptor (Rattus norvegicus), sequence (P26255 whole entry): as the sequence (P26255 whole entry) above

[28] = Drug recovery in bile duct cannulated rat urine at 10 mg/kg, po measured over 48 hrs; format: ADME, organism-based; details: read-out: Drug recovery
Cytochrome P450 2B6 = Cytochrome P450 2B6 (Homo sapiens, UniProt P20813); assay: Inhibition of CYP2B6 in human liver microsomes; format: ADME
Cytochrome P450 2B6, sequence (P20813 whole entry): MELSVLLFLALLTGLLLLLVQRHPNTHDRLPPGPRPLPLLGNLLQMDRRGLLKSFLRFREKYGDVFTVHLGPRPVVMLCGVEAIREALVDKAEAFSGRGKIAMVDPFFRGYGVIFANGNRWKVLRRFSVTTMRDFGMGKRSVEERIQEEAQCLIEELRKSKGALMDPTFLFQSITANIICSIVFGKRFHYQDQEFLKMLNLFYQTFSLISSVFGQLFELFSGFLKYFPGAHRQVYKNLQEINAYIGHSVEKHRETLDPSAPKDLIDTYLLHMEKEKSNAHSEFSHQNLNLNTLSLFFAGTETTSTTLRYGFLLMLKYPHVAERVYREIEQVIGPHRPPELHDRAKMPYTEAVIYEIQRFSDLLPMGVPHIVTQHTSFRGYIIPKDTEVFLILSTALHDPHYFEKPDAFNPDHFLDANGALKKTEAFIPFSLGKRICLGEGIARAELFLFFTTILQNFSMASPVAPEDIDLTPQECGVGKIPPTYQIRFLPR

[29] = Intrinsic clearance in rhesus monkey liver microsomes; format: ADME, Macaca mulatta; details: read-out: CLH
[30] = biological target: T1, Beta-3 adrenergic receptor; assay: Agonist activity at rat beta3 adrenergic receptor expressed in CHO cells assessed as accumulation of cAMP after 30 mins by TR-FRET assay; format: functional, cell-based
[31] = Drug recovery in bile duct cannulated rat at 10 mg/kg, po measured over 48 hrs; format: ADME, organism-based; details: in vivo, read-out: Drug recovery
[32] = Fraction unbound in cynomolgus monkey at 0.5 mg/kg, iv or 2 mg/kg, po; format: ADME, organism-based, Macaca fascicularis; details: in vivo

O=C(Nc1ccc(C[C@@H]2CC[C@H]([C@H](O)c3ccccc3)N2)cc1)[C@@H]1CCc2nccc(=O)n21 [VIBEGRON]
CL free (Rhesus monkey): 33 mL/min/kg | max activation [1]: 87% | EC50 [2]: 0.011 µM | half-life [3]: 7 h | CL free (Cynomolgus monkey): 34 mL/min/kg | Activity (Hepatocyte): Not Active | remaining at 24 h [4]: 93% | logD [5]: 0.9 | clearance [6]: 14 mL/min/kg | half-life [7]: 14 h | fraction unbound [8]: 0.21 | dose excreted at 48 h [9]: 13% | EC50 [10]: 0.122 µM | IC50 [11]: > 30 µM | CL free (Canis familiaris): 37 mL/min/kg | bioavailability [12]: 20% | Activity (Rattus norvegicus [13]): Non-toxic | IC50 (Cytochrome P450 3A4 [14]): > 100 µM | Activity (Rattus norvegicus [15]): Dose-dependent effect | minimal effective dose (Rattus norvegicus [15]; 0.75 h, read-out: MED): 0.3 mg/kg | EC50 [16]: > 30 µM | AUC/dose (Rattus norvegicus [17]): 540 nM·h/mg/kg | solubility [18]: > 4000 µg/mL | EC50 [19]: 0.0016 µM | EC50 [20]: 0.00057 µM | Papp at 3 h, 5 µM (MDR1 (human)): 2.4 ×10⁻⁶ cm/s | Activity (Rattus norvegicus [21]): Non-toxic | IC50 (Cytochrome P450 2C9): > 100 µM | IC50 [22]: > 30 µM | CLint scaled [23]: 20 mL/min/kg | Activity (Cytochrome P450 3A4 [24]): Not Active | dose excreted at 48 h [25]: 19% | remaining at 24 h [26]: 100% | max activation [27]: 89% | dose excreted at 48 h [28]: 32% | IC50 (Cytochrome P450 2B6): > 100 µM | CLint scaled [29]: 18 mL/min/kg | EC50 [30]: 0.086 µM | dose excreted at 48 h [31]: 87% | fraction unbound [32]: 0.58
